Bounds are passed on as bounds.

For assay [1], the target named is T1, Avi-KRAS G12D (1-169) GppNHp/RAF1 RBD-3xFLAG (52-151) (Homo sapiens, UniProt P01116, G12D).
T1 construct: Avi-KRAS G12D (1-169)
Nature of the assay: Raf1-KRAS G12D-GppNHP disruption HTRF assay (Biological Example 1). The following applies: KRAS G12D-GppNHp/RAF1 RBD HTRF. Format: binding. The procedure, abridged:
(§1)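 Compound disruption of KRAS-GppNHp/RAF1 RBD binding read by HTRF after two sequential 1 h room-temperature incubations (protein mix, then detection reagents), shaken at 700 rpm. Buffer Tris pH 7.5 with MgCl2, BSA, Tween and 10% DMSO; results given as percent activity relative to DMSO (100%).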

In assay [2] the target is T2, Avi-KRAS G12R (1-169) GppNHp/RAF1 RBD-3xFLAG (52-151) (Homo sapiens, UniProt P01116, G12R).
T2 construct: Avi-KRAS G12R (1-169)
Nature of the assay: Raf1-KRAS G12R-GppNHP disruption HTRF assay (Biological Example 1). Format: binding. The following applies: KRAS G12R-GppNHp/RAF1 RBD HTRF. Summed up:
as §1

Assay [3] deals with T3, Avi-KRAS WT (1-169) GppNHp/RAF1 RBD-3xFLAG (52-151) (Homo sapiens, UniProt P01116).
T3 construct: Avi-KRAS WT (1-169)
Nature of the assay: Raf1-KRAS WT-GppNHP disruption HTRF assay (Biological Example 1). The following applies: KRAS WT-GppNHp/RAF1 RBD HTRF. Format: binding. Summed up:
as §1

In a further assay the test system is SW620 cells (KRAS G12V). Put plainly: Cell-based pERK HTRF assay in SW620 cell (Biological Example 4). The procedure, abridged: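 SW620 seeded in RPMI/10% FBS, next day dosed 4 h (top 1 μM, half-log, 9 pts, 0.25% DMSO). Lysed, pERK by d2/Eu cryptate HTRF, 4–24 h RT, 615 nm read.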
The subject of another assay is AsPC-1 cells (KRAS G12D). Put plainly: Cell-based pERK HTRF assay in AsPC-1 cells (Biological Example 5). Summed up:
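A two-hour compound treatment (0.25% DMSO) of cells seeded the previous day preceded lysis and HTRF phospho-ERK1/2 detection. EC50 values were fitted by variable-slope four-parameter regression.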

Where [4] appears, read: SW620 (KRAS G12V) cells, pERK HTRF.
Where [5] appears, read: Homo sapiens, ASPC1, AsPC-1 (KRAS G12D) cells.
Where [6] appears, read: Homo sapiens, SW-620, SW620 (KRAS G12V) cells.
Setting [7] is: Homo sapiens, SW-620, SW620 (KRAS G12V) cells, pERK HTRF.

T1 sequence (P01116 1-169 isoform P01116-2 G12D): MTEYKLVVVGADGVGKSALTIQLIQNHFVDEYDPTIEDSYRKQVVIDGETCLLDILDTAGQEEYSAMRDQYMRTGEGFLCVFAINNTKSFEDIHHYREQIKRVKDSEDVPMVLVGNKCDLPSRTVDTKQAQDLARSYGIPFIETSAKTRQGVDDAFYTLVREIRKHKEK
T2 sequence (P01116 1-169 isoform P01116-2 G12R): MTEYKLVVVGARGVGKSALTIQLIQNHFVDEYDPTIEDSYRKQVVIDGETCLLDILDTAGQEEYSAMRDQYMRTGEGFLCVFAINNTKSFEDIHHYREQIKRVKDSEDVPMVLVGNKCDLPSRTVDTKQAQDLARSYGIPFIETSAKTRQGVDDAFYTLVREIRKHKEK
T3 sequence (P01116 1-169 isoform P01116-2): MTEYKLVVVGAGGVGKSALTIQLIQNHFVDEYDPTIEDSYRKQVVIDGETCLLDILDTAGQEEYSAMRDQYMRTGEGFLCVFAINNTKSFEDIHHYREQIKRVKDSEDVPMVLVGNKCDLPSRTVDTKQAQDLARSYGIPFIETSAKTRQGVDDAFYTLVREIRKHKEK

`CCN(c1nc(OC[C@@]23CCCN2C[C@H](F)C3)nc2c(F)c(-c3ccc(F)c4sc(N)c(C#N)c34)c(C(F)(F)F)cc12)[C@H]1CCN(C(=O)C(C)C)C1` (atropisomer, axis not shown) [Compound 468]: the IC50 is > 10000 nM in assay [1]; > 10000 nM in assay [2]; > 10000 nM in assay [3]; > 1000 nM in the assay with SW620 cells (KRAS G12V) (setting [4]); > 1000 nM with AsPC-1 cells (KRAS G12D) (AsPC-1 (KRAS G12D) cells).
On to `CCN(c1nc(OC[C@@]23CCCN2C[C@H](F)C3)nc2c(F)c(-c3ccc(F)c4sc(N)c(C#N)c34)c(C(F)(F)F)cc12)[C@H]1CCS(=O)(=O)C1` (atropisomer, axis not shown) [Compound 492], for which the concentration for half-maximal inhibition (IC50) in assay [1] is < 100 nM; in assay [2], < 100 nM; in assay [3], < 100 nM; in the assay on SW620 cells (KRAS G12V) (setting [4]) it was < 100 nM; in the assay on AsPC-1 cells (KRAS G12D) (setting [5]) it was ≤ 100 nM.
`CN(C)C(=O)[C@@H]1CC[C@@H](N(C)c2nc(OC[C@@]34CCCN3C[C@H](F)C4)nc3c(F)c(-c4ccc(F)c5sc(N)c(C#N)c45)c(C(F)(F)F)cc23)C1` (atropisomer, axis not shown) [Compound 512]: the IC50 was 100 to 1000 nM in assay [1]; 100 to 1000 nM in assay [2]; 100 to 1000 nM in assay [3]; < 100 nM in the assay on SW620 cells (KRAS G12V) (setting [6]); < 100 nM with SW620 cells (KRAS G12V) (setting [7]).
On to `CCN(c1nc(OC[C@@]23CCCN2C[C@H](F)C3)nc2c(F)c(-c3ccc(F)c4sc(N)c(C#N)c34)c(C(F)(F)F)cc12)[C@H]1C[C@@H]2COC(=O)N2C1` (atropisomer, axis not shown) [Compound 519], for which the IC50 in assay [1] was < 100 nM; in assay [2] it was < 100 nM; in assay [3], < 100 nM; in the assay on SW620 cells (KRAS G12V) (setting [6]), < 100 nM; in the assay with SW620 cells (KRAS G12V) (setting [7]), < 100 nM; with AsPC-1 cells (KRAS G12D) (setting [5]), ≤ 100 nM.
`CCC(=O)N1CC[C@@H](N(CC)c2nc(OC[C@@]34CCCN3C[C@H](F)C4)nc3c(F)c(-c4ccc(F)c5sc(N)c(C#N)c45)c(C(F)(F)F)cc23)[C@H]1C` (atropisomer, axis not shown) [Compound 523]: the IC50 in assay [1] is < 100 nM; in assay [2], < 100 nM; in assay [3], < 100 nM; in the assay with SW620 cells (KRAS G12V) (setting [6]), < 100 nM; in the assay with SW620 cells (KRAS G12V) (setting [4]) it was < 100 nM; in the assay with AsPC-1 cells (KRAS G12D) (setting [5]) it was 100 to 1000 nM.
In the case of `CCN(c1nc(OC[C@@]23CCCN2C[C@H](F)C3)nc2c(F)c(-c3ccc(F)c4sc(N)c(C#N)c34)c(C(F)(F)F)cc12)[C@@H]1C[C@@H](C)N(C(C)=O)C1` (atropisomer, axis not shown) [Compound 527], the concentration for half-maximal inhibition (IC50) in assay [1] was 100 to 1000 nM; in assay [2] it was 100 to 1000 nM; in assay [3], 100 to 1000 nM; in the assay on SW620 cells (KRAS G12V) (setting [6]), < 100 nM; with SW620 cells (KRAS G12V) (setting [7]), < 100 nM.
With `CCN(c1nc(OC[C@@]23CCCN2C[C@H](F)C3)nc2c(F)c(-c3ccc(F)c4sc(N)c(C#N)c34)c(C(F)(F)F)cc12)[C@@H]1C[C@H]2CCC(=O)N2C1` (atropisomer, axis not shown) [Compound 532], the IC50 in assay [1] is 100 to 1000 nM; in assay [2], 100 to 1000 nM; in assay [3], 100 to 1000 nM; in the assay on SW620 cells (KRAS G12V) (setting [6]), < 100 nM; in the assay on SW620 cells (KRAS G12V) (setting [7]), < 100 nM.
For the compound `CCC(=O)N1C[C@H](N(CC)c2nc(OC[C@@]34CCCN3C[C@H](F)C4)nc3c(F)c(-c4ccc(F)c5sc(N)c(C#N)c45)c(C(F)(F)F)cc23)C[C@@H]1C` (atropisomer, axis not shown) [Compound 533], the 50% inhibitory concentration (IC50) in assay [1] is 100 to 1000 nM; in assay [2], 100 to 1000 nM; in assay [3] it was 100 to 1000 nM; in the assay with SW620 cells (KRAS G12V) (setting [6]), < 100 nM; with SW620 cells (KRAS G12V) (setting [7]) it was < 100 nM.
On to `CCN(c1nc(OC[C@@]23CCCN2C[C@H](F)C3)nc2c(F)c(-c3ccc(F)c4sc(N)c(C#N)c34)c(C(F)(F)F)cc12)[C@@H]1C[C@H](C)N(C(C)=O)C1` (atropisomer, axis not shown) [Compound 534], for which the concentration for half-maximal inhibition (IC50) is 100 to 1000 nM in assay [1]; 100 to 1000 nM in assay [2]; 100 to 1000 nM in assay [3]; < 100 nM in the assay on SW620 cells (KRAS G12V) (setting [6]); < 100 nM in the assay with SW620 cells (KRAS G12V) (setting [7]).
As to `CCN(c1nc(OC[C@@]23CCCN2C[C@H](F)C3)nc2c(F)c(-c3ccc(F)c4sc(N)c(C#N)c34)c(C(F)(F)F)cc12)[C@H]1C[C@H](C)N(C(=O)COC)C1` (atropisomer, axis not shown) [Compound 538], the IC50 (in assay [1]; in assay [2]; in assay [3]; in the assay with SW620 cells (KRAS G12V) (setting [6]); with SW620 cells (KRAS G12V) (setting [7])) was < 100 nM each time.
In the case of `CCN(c1nc(OC[C@@]23CCCN2C[C@H](F)C3)nc2c(F)c(-c3ccc(F)c4sc(N)c(C#N)c34)c(C(F)(F)F)cc12)[C@H]1C[C@H](C)N(C(=O)C2COC2)C1` (atropisomer, axis not shown) [Compound 539], the IC50 (in assay [1]; in assay [2]; in assay [3]; in the assay on SW620 cells (KRAS G12V) (setting [6]); in the assay on SW620 cells (KRAS G12V) (setting [7])) was < 100 nM each time.
Consider `CCN(c1nc(OC[C@@]23CCCN2C[C@H](F)C3)nc2c(F)c(-c3ccc(F)c4sc(N)c(C#N)c34)c(C(F)(F)F)cc12)[C@H]1CCN(C(=O)N(C)C)C1` (atropisomer, axis not shown) [Compound 540, (3S)-3-[[7-(2-amino-3-cyano-7-fluoro-benzothiophen-4-yl)-8-fluoro-2-[[(2R,8S)-2-fluoro-1,2,3,5,6,7-hexahydropyrrolizin-8-yl]methoxy]-6-(trifluoromethyl)quinazolin-4-yl]-ethyl-amino]-N,N-dimethyl-pyrrolidine-1-carboxamide], for which the IC50 in the assay on SW620 cells (KRAS G12V) (setting [6]) was < 100 nM; in the assay with AsPC-1 cells (KRAS G12D) (setting [5]), 100 to 1000 nM.
Consider `CCN(c1nc(OC[C@@]23CCCN2C[C@H](F)C3)nc2c(F)c(-c3ccc(F)c4sc(N)c(C#N)c34)c(C(F)(F)F)cc12)[C@H]1CCN(C(=O)c2ccon2)C1` (atropisomer, axis not shown) [Compound 554], for which the half-inhibitory concentration (IC50) (in assay [1]; in assay [2]; in assay [3]; with SW620 cells (KRAS G12V) (setting [6]); in the assay with SW620 cells (KRAS G12V) (setting [7])) was < 100 nM in each case.
Take `CCN(c1nc(OC[C@@]23CCCN2C[C@H](F)C3)nc2c(F)c(-c3ccc(F)c4sc(N)c(C#N)c34)c(C(F)(F)F)cc12)[C@@H]1C[C@@H]2CCC(=O)N2C1` [Compound 511]: the IC50 is 100 to 1000 nM in assay [1]; 1000 to 10000 nM in assay [2]; 100 to 1000 nM in assay [3]; < 100 nM in the assay with SW620 cells (KRAS G12V) (setting [6]); < 100 nM in the assay on SW620 cells (KRAS G12V) (setting [7]).
Take `CCN(c1nc(OC[C@@]23CCCN2C[C@H](F)C3)nc2c(F)c(-c3ccc(F)c4sc(N)c(C#N)c34)c(C(F)(F)F)cc12)C1C[C@@H](C)N(C(=O)C2CC2)C1` (stereo partly shown) [Compound 516]: the concentration for half-maximal inhibition (IC50) in assay [1] is < 100 nM; in assay [2], < 100 nM; in assay [3], 100 to 1000 nM; in the assay on SW620 cells (KRAS G12V) (setting [6]), < 100 nM; with SW620 cells (KRAS G12V) (setting [7]), < 100 nM.
For the compound `CN(C)C(=O)c1nn2c(c1Cl)CN(c1nc(OC[C@@]34CCCN3C[C@H](F)C4)nc3c(F)c(-c4ccc(F)c5sc(N)c(C#N)c45)c(C(F)(F)F)cc13)CC2` [Compound 517], the IC50 is < 100 nM in assay [1]; < 100 nM in assay [2]; 100 to 1000 nM in assay [3]; < 100 nM in the assay on SW620 cells (KRAS G12V) (setting [6]); < 100 nM in the assay on SW620 cells (KRAS G12V) (setting [7]).
For `CCN(c1nc(OC[C@@]23CCCN2C[C@H](F)C3)nc2c(F)c(-c3ccc(F)c4sc(N)c(C#N)c34)c(C(F)(F)F)cc12)[C@@H]1CC(=O)N(C)C1` [Compound 520], the IC50 in assay [1] is 100 to 1000 nM; in assay [2], 100 to 1000 nM; in assay [3], 100 to 1000 nM; in the assay on SW620 cells (KRAS G12V) (setting [6]), < 100 nM; with SW620 cells (KRAS G12V) (setting [7]), < 100 nM.
In the case of `CCN1C[C@@H](N(CC)c2nc(OC[C@@]34CCCN3C[C@H](F)C4)nc3c(F)c(-c4ccc(F)c5sc(N)c(C#N)c45)c(C(F)(F)F)cc23)CC1=O` [Compound 529, 2-amino-4-(4-(ethyl((S)-1-ethyl-5-oxopyrrolidin-3-yl)amino)-8-fluoro-2-(((2R,7aS)-2-fluorotetrahydro-1H-pyrrolizin-7a(5H)-yl)methoxy)-6-(trifluoromethyl)quinazolin-7-yl)-7-fluorobenzo[b]thiophene-3-carbonitrile], the IC50 (in assay [1]; in assay [2]; in assay [3]; in the assay on SW620 cells (KRAS G12V) (setting [6]); in the assay on SW620 cells (KRAS G12V) (setting [7])) was < 100 nM each time.
Regarding `CCN(c1nc(OC[C@@]23CCCN2C[C@H](F)C3)nc2c(F)c(-c3ccc(F)c4sc(N)c(C#N)c34)c(C(F)(F)F)cc12)[C@@H]1CC(=O)N(C2CC2)C1` [Compound 537], the half-inhibitory concentration (IC50) (in assay [1]; in assay [2]; in assay [3]; in the assay with SW620 cells (KRAS G12V) (setting [6]); with SW620 cells (KRAS G12V) (setting [7])) was < 100 nM each time.
